According to publication PMC8403083 (OncoTargets and therapy, 2021):

How the values were obtained:
CD73 = molecular target: T1, CD73 (Mus musculus, UniProt Q61503); assay: CMP hydrolysis by EMT6 cells, Malachite green phosphate detection; assay type: cell-based
T1 sequence (Q61503 29-551): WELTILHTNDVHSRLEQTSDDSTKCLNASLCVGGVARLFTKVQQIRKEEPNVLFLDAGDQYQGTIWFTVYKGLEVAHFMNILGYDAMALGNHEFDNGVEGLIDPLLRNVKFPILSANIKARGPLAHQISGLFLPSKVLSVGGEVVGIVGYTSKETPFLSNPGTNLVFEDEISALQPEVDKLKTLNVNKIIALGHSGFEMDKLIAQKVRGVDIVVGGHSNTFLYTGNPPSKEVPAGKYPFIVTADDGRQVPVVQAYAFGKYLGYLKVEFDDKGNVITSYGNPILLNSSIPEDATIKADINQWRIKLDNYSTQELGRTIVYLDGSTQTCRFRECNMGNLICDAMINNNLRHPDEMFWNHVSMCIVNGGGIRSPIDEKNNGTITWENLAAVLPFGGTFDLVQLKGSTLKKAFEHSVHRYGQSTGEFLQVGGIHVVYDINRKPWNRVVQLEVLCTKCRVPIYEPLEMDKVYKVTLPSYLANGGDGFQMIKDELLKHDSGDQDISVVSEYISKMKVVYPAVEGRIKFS

CD73 (5ʹ-Nucleotidase) = molecular target: T2, CD73 (5ʹ-Nucleotidase) (Homo sapiens, UniProt P21589); assay: Malachite green phosphate assay, CMP substrate, […] h preincubation; assay type: biochemical
T2 sequence (P21589 27-547): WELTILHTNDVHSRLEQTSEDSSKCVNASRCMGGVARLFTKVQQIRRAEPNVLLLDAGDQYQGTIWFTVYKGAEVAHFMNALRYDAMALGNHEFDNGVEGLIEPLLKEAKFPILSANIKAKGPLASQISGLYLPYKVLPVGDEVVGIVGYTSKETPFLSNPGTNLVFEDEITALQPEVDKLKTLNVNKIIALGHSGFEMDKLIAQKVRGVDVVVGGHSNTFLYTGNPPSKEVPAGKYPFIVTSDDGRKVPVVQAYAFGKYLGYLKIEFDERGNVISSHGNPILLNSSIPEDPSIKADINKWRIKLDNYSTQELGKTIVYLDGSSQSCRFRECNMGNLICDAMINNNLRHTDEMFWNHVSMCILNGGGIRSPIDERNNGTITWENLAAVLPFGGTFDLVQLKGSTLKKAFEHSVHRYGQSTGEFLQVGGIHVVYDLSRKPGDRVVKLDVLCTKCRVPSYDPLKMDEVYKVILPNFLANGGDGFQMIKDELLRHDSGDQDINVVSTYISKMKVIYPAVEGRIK

| SMILES | IC50 (CD73) | IC50 (CD73 (5ʹ-Nucleotidase)) |
| --- | --- | --- |
| O=P(O)(O)COC[C@H]1O[C@@H](n2ncc3c(N4CC5(CCc6ccccc65)C4)nc(Cl)nc32)[C@H](O)[C@@H]1O [SHR170008, ((((2R,3S,4R,5R)-5-(6-chloro-4-(2ʹ,3ʹ-dihydrospiro[azetidine-3,1ʹ-inden]-1-yl)-1H-pyrazolo[3,4-d]pyrimidin-1-yl)-3,4-dihydroxytetrahydrofuran-2-yl)methoxy)methyl) phosphonic acid] | 0.133 ± 0.008 nM | – |
| Nc1ncnc2c1ncn2[C@@H]1O[C@H](COP(=O)(O)CP(=O)(O)O)[C@@H](O)[C@H]1O [AMPCP] | 130 ± 8 nM | 3.8 ± 0.8 nM |
